Experimental data from article PMC6891695, “Evaluation of Antifouling Potential and Ecotoxicity of Secondary Metabolites Derived from Red Algae of the Genus Laurencia” (Marine Drugs, 2019).

Experiments:
RTL-W1 cell line = experiment: RTL-W1 alamar blue/resazurin assay (mitochondria function); assay type: cell-based, rainbow trout; conditions: for EC50: Oncorhynchus mykiss, RTL-W1, Alamar blue/Resazurin assay, 48 h incubation; for effect on general metabolism and mitochondrial activity (in words): RTL-W1
Experimental: (§1) The RTL-W1 cell line, a non-transformed rainbow trout liver cell line that has already been used in environmental toxicity assays, was established from the normal liver of an adult rainbow trout by proteolytic dissociation of liver fragments. RTL-W1 cells were cultured in 75 cm^2 culture flasks (Orange Scientific, Braine l’Alleud, Belgium) at 20 °C in Leibovitz’s (L-15, Sigma-Aldrich, St. Louis, MO, USA) medium supplemented with 5% fetal bovine serum (FBS) and 1% L-glutamine in CO2-free incubator. For the cytotoxicity assays of the selected secondary metabolites, cells were seeded at 3 × 10^4 cells/well density in a 96-well tissue culture plate (Orange Scientific Braine l’Alleud, Belgium) in 100 μL culture medium/well for 2 days before the assays. Three different cytotoxicity protocols were used: 1) The alamar blue/resazurin fluorometric/colorimetric cell viability assay to assess the metabolic capacity and mitochondrial function; 2) the crystal violet cell viability assay for indirect quantification of cell death; and 3) the neutral red cell proliferation assay for lysosomal activity. Two days after seeding the cells, cultures were incubated with various concentrations of selected secondary metabolites at 20 °C for 48 h before cell viability was assessed. […] For the alamar blue/resazurin fluorometric/colorimetric cell viability assay, 100 μL of 3 μg/100 μL Resazurin sodium salt (Sigma-Aldrich, St. Louis, MO, USA) in incubation medium was added on each well and incubated under sterile conditions at 20 °C for 4 h. For the crystal violet cell viability assay, after 48 h of incubation with each secondary metabolite, the culture medium was aspirated and cells were washed twice with sterile dd. H2O. The final wash was aspirated and 50 μL of 0.5% (w/v) crystal violet staining solution (20% methanol in dd. H2O) was added to each well followed by incubation for 20 min at room temperature on a bench rocker with a frequency of 20 oscillations per minute. The staining solution was then aspirated and the plate was washed four times with sterile dd. H2O and left to air-dry without its lid for 3 h at room temperature. Next, 200 μL of methanol was added to each well, and the plate was incubated with its lid on for 20 min at room temperature on a bench rocker with a frequency of 20 oscillations per minute. For the neutral red cell proliferation assay, after 48 h of incubation with each secondary metabolite, the culture medium was aspirated and cells were washed twice with phosphate-buffered saline (PBS, pH 7.4). Cells were then incubated with 100 μL of a 40 μg/mL neutral red staining solution in culture medium at 20 °C for 4 h followed by two washes with 150 μL of PBS. Then cells were incubated with 100 μL neutral red destain solution (50% ethanol, 49% dd. H2O, 1% glacial acetic acid) for 10 min on a bench rocker with a frequency of 80 oscillations per minute. Absorbance was read at 570 nm for alamar blue/resazurin and crystal violet and at 540 nm for neutral red using a Tecan infinite M200 Pro microplate reader. For each assay and each secondary metabolite, a minimum of four independent dose–response experiments with three replicates each were carried out. Calculations were carried out using detailed formulas (AbCam, Cambridge, UK, and results were analyzed with GraphPad Prism v.6.
(§2) For EC50 or IC50 (the concentration that results in 50% stimulation or inhibition relative to the control) calculations in GraphPad Prism v.6, all data were fitted to the curve according to the following models for normalized response: Y = 100/(1 + 10^((X − LogIC50))) or Y = 100/(1 + 10^((LogEC50 − X))) depending on the trend of the curve.

HEK293 cell line [1] = experiment: HEK293 neutral red assay (lysosome activity); assay type: cell-based, human; conditions: for effect on lysosomal activity (in words): HEK293; for EC50: Homo sapiens, HEK293, Neutral red assay, 48 h incubation
Experimental: as §1
(§3) HEK293 cells, a human embryotic kidney cell line, were obtained from ATCC (ATCC® CRL-1573™) at passage 37 of the original clone and used at passage 38. Cells were cultured routinely in 75 cm^2 culture flasks (Orange Scientific, Braine l’Alleud, Belgium) at 37 °C (5% CO2) in DMEM cell culture medium (Biosera) supplemented with 10% FBS (Sigma-Aldrich, St. Louis, MO, USA) and 1% L-glutamine. All assay conditions and protocols were identical to those described above for RTL-W1 cells with the exception that incubations were carried out at 37 °C. […]

Chaetoceros gracilis = Chaetoceros gracilis toxicity (phytoplankton growth) assay; assay type: cell-based; conditions: for EC50: Chaetoceros neogracilis, 96 h
Experimental: For phytoplankton growth toxicity assays, the criterion for assay validity was that the cell count of the negative control after 96 h should be ≥2 × 10^5 cells/mL [40].
The centric marine diatom C. gracilis Schütt (strain CCMP1315) was grown photoautotrophically in autoclaved artificial seawater (sea salts; Sigma-Aldrich, St. Louis, MO, USA) (30‰) supplemented with F/2 (half-strength medium f as subsequently modified) in 100 mL medium at 20 °C and with ambient air bubbled in the media. By monitoring cell density, an adjusted culture of >1 × 10^6 cells/mL was used for the toxicity assays. At 96 h, a 0.9 mL aliquot of each treatment was sampled, mixed with 0.1 mL Lugol and cell density was counted. Experiments were assumed valid if cell count in the control after 96 h was […].
as §2

[2] = Artemia salina toxicity assay; assay type: in vivo; conditions: Artemia salina, in vivo, read-out: EC50 Artemia salina toxicity (mortality)
Experimental: The short-term toxicity assay with A. salina nauplii was used to determine the toxicity of secondary metabolites. Hatching of A. salina nauplii was carried out in ASW (35‰) using 0.5 g of cysts incubated in 500 mL seawater at a temperature of 25 ± 1 °C and lateral illumination (1000 Lux). All cysts were kept in continuous suspension with aeration and 24 h later hatched larvae (instar I) were harvested. Toxicity assays were carried out in three independent experiments in 24-well plates with four replicates of each tested concentration. Ten nauplii per well were transferred with a Pasteur pipette into the 24-well plates and each well was filled with 2 mL of ASW and 50 μL of various concentrations of the tested compounds in methanol. Control treatments received 50 μL of methanol. Plates were incubated in the dark at 25 ± 1 °C for 48 h. Mortality was assessed by recording the number of individuals with no movement of their appendages within 10 seconds and is expressed as the percentage of the total number of assessed individuals for each concentration.
as §2

HEK293 cell line [3] = experiment: HEK293 alamar blue/resazurin assay (mitochondria function); assay type: cell-based, human; conditions: for effect on mitochondrial function and metabolism (in words): HEK293; for EC50: Homo sapiens, HEK293, Alamar blue/Resazurin assay, 48 h incubation
Experimental: as §1, §3

| SMILES | EC50 (RTL-W1 cell line) [µM] | effect on general metabolism and mitochondrial activity (in words) (RTL-W1 cell line) | effect on lysosomal activity (in words) (HEK293 cell line [1]) | EC50 (HEK293 cell line [1]) [µM] | EC50 (Chaetoceros gracilis) [µM] | LC50 at 24 h [2] [µM] | LC50 at 48 h [2] [µM] | effect on mitochondrial function and metabolism (in words) (HEK293 cell line [3]) | EC50 (HEK293 cell line [3]) [µM] | inhibition of C. gracilis growth (in words) (Chaetoceros gracilis) |
| --- | --- | --- | --- | --- | --- | --- | --- | --- | --- | --- |
| C=C(C1CCC(C)(O)C(Br)C1)C1C(Br)C2C(CCC2(C)O)C1(C)C (stereo not shown) [Compound 19, neorogioldiol] | > 1000 | none of the three tested metabolites had an effect | not affected | > 1000 | 352 | 31.5 | 304 | very selective against mitochondrial function and metabolism | 0.062 | – |
| CC1=C2CC[C@@](C)(Cl)[C@@H](Br)C[C@]2(C)[C@@H](C)[C@@H](Br)[C@@H]1O [Compound 9, perforenol] | > 1000 | none of the three tested metabolites had an effect | not affected | > 1000 | 49.8 | 283 | 189 | – | 10.8 | – |
| CC(C)[C@@H]1CC=C[C@H]2[C@H]3[C@](C)(CC[C@]12CBr)[C@@H](Br)CC[C@@]3(C)O [Bromosphaerol, reference compound] | > 1000 | – | – | 340 | 4.34 | – | – | – | 57.6 | very potent inhibitor of C. gracilis growth |
| C=CC(C)(O)CC[C@@H]1C(=C)CC[C@@H](Br)[C@@]1(C)CCC1OC1(C)C (stereo partly shown) [Compound 18] | > 1000 | none of the three tested metabolites had an effect | not affected | > 1000 | 10.7 | 34.9 | 38.1 | very selective against mitochondrial function and metabolism | 0.225 | – |
